Test results published in patent US10294202B2, “Pyrrolidinones as herbicides” (FMC Corporation, priority 2013, dated 2019).

Key:
ryegrass, Italian = assay: Test D pre-/postemergence herbicide test; type: in vivo, Lolium multiflorum; conditions: for Plant response rating: Postemergence, Ryegrass, Italian, scale 0 to 100; for Plant response rating, Ryegrass, Italian: Preemergence, scale 0 to 100 (0 no effect, 100 complete control)
Excerpt: (§1) Seeds of plant species selected from bluegrass (annual bluegrass, Poa annua), blackgrass (Alopecurus myosuroides), canarygrass (littleseed canarygrass, Phalaris minor), chickweed (common chickweed, Stellaria media), galium (catchweed bedstraw, Galium aparine), bromegrass, downy (downy bromegrass, Bromus tectorum), field poppy (Papaver rhoeas), field violet (Viola arvensis), foxtail, green (green foxtail, Setaria viridis), deadnettle (henbit deadnettle, Lamium amplexicaule), ryegrass, Italian (Italian ryegrass, Lolium multiflorum), kochia (Kochia scoparia), lambsquarters (Chenopodium album), oilseed rape (Brassica napus), pigweed (Amaranthus retroflexus), chamomile (scentless chamomile, Matricaria inodora), Russian thistle (Salsola kali), speedwell (bird's-eye speedwell, Veronica persica), barley, spring (spring barley, Hordeum vulgare), wheat, spring (spring wheat, Triticum aestivum), buckwheat, wild (wild buckwheat, Polygonum convolvulus), mustard, wild (wild mustard, Sinapis arvensis), oat, wild (wild oat, Avena fatua), radish, wild (wild radish, Raphanus raphanistrum), […]), barley, winter (winter barley, Hordeum vulgare), and wheat, winter (winter wheat, Triticum aestivum) were planted into a silt loam soil and treated preemergence with test chemicals formulated in a non-phytotoxic solvent mixture which included a surfactant. At the same time, these species were planted in pots containing Redi-Earth® planting medium (Scotts Company, 14111 Scottslawn Road, Marysville, Ohio 43041) comprising spaghnum peat moss, vermiculite, wetting agent and starter nutrients and treated with postemergence applications of the test chemicals formulated in the same manner. Plants ranged in height from 2 to 18 cm (1- to 4-leaf stage). Treated plants and controls were maintained in a controlled growth environment for 7 to 21 days after which time all species were compared to controls and visually evaluated. Plant response ratings, summarized in Table D, are based on a scale of 0 to 100 where 0 is no effect and 100 is complete control. A dash (-) response means no test result.

mustard, wild = assay: Test D pre-/postemergence herbicide test; type: in vivo, Sinapis arvensis; conditions: for Plant response rating: Mustard, Wild, scale 0 to 100; for Plant response rating, Mustard, Wild: scale 0 to 100 (0 no effect, 100 complete control)
Excerpt: as §1

cocklebur = assay: Test C pre-/postemergence herbicide test; type: in vivo, Xanthium strumarium
Excerpt: Seeds of plant species selected from blackgrass (Alopecurus myosuroides), ryegrass, Italian (Italian ryegrass, Lolium multiflorum), wheat (winter wheat, Triticum aestivum), galium (catchweed bedstraw, Galium aparine), corn (Zea mays), crabgrass, large (large crabgrass, Digitaria sanguinalis), foxtail, giant (giant foxtail, Setaria faberii), johnsongrass (Sorghum halepense), lambsquarters (Chenopodium album), morningglory (Ipomoea coccinea), nutsedge, yellow (yellow nutsedge, Cyperus esculentus), pigweed (Amaranthus retroflexus), ragweed (common ragweed, Ambrosia elatior), soybean (Glycine max), barnyardgrass (Echinochloa crus-galli), oilseed rape (Brassica napus), waterhemp (common waterhemp, Amaranthus rudis), kochia (Kochia scoparia), oat, wild (wild oat, Avena fatua), surinam grass (Brachiaria decumbens), foxtail, green (green foxtail, Setaria viridis), goosegrass (Eleusine indica), bromegrass, downy (downy bromegrass, Bromus tectorum), nightshade (eastern black nightshade, Solanum ptycanthum), cocklebur (common cocklebur, Xanthium strumarium), cupgrass, woolly (woolly cupgrass, Eriochloa villosa), bermudagrass (Cynodon dactylon), sunflower, (common oilseed sunflower, Helianthus annuus), Russian thistle (Salsola kali) and velvetleaf (Abutilon theophrasti) were planted into a blend of loam soil and sand and treated preemergence with test chemicals formulated in a non-phytotoxic solvent mixture which included a surfactant. At the same time, plants selected from these crop and weed species and also barley (winter barley, Hordeum vulgare), […]), chickweed (common chickweed, Stellaria media), deadnettle (henbit deadnettle, Lamium amplexicaule), and canarygrass (littleseed canarygrass, Phalaris minor) were planted in pots containing Redi-Earth® planting medium (Scotts Company, 14111 Scottslawn Road, Marysville, Ohio 43041) comprising spaghnum peat moss, vermiculite, wetting agent and starter nutrients and treated with postemergence applications of test chemicals formulated in the same manner. Plants ranged in height from 2 to 18 cm (1- to 4-leaf stage) for postemergence treatments. Treated plants and controls were maintained in a greenhouse for 13 to 15 days, after which time all species were compared to controls and visually evaluated. Plant response ratings, summarized in Table C, are based on a scale of 0 to 100 where 0 is no effect and 100 is complete control. A dash (-) response means no test result.

[1] = Preemergence, 62 g ai/ha, scale 0 to 100
[2] = Preemergence, 125 g ai/ha, scale 0 to 100 (0 no effect, 100 complete control)
[3] = Preemergence, 31 g ai/ha, scale 0 to 100 (0 no effect, 100 complete control)
[4] = Postemergence, 31 g ai/ha, scale 0 (no effect) to 100 (complete control)
[5] = Postemergence, 62 g ai/ha, scale 0 to 100 (0 no effect, 100 complete control)
[6] = Postemergence, 125 g ai/ha, scale 0 to 100 (0 no effect, 100 complete control)
[7] = Postemergence, 250 g ai/ha, scale 0 to 100 (0 no effect, 100 complete control)

SMILES | Plant response rating (ryegrass, Italian; 16 g ai/ha) | Plant response rating (ryegrass, Italian; 31 g ai/ha) | Plant response rating (ryegrass, Italian; 62 g ai/ha) | Plant response rating (ryegrass, Italian; 125 g ai/ha) | Plant response rating (ryegrass, Italian; 250 g ai/ha) | Plant response rating, Ryegrass, Italian (ryegrass, Italian; 62 g ai/ha) | Plant response rating, Ryegrass, Italian (ryegrass, Italian; 125 g ai/ha) | Plant response rating, Ryegrass, Italian (ryegrass, Italian; 31 g ai/ha) | Plant response rating, Ryegrass, Italian (ryegrass, Italian; 250 g ai/ha) | Plant response rating (mustard, wild; Postemergence, 31 g ai/ha) | Plant response rating (mustard, wild; Postemergence, 125 g ai/ha) | Plant response rating, Mustard, Wild (mustard, wild; Preemergence, 62 g ai/ha) | Plant response rating, Mustard, Wild (mustard, wild; Preemergence, 31 g ai/ha) | Plant response rating (mustard, wild; Preemergence, 125 g ai/ha) | Plant response rating (mustard, wild; Preemergence, 250 g ai/ha) | Plant response rating, Cocklebur (cocklebur; [1]) | Plant response rating, Cocklebur (cocklebur; [2]) | Plant response rating, Cocklebur (cocklebur; [4]) | Plant response rating, Cocklebur (cocklebur; [5]) | Plant response rating, Cocklebur (cocklebur; [6]) | other results
O=C1NCC(c2ccc(F)c(F)c2)C1C(=O)Nc1ccccc1C(F)(F)F (racemic) [Compound 6] | 0 | 0 | 0 | 0 | 0 | 0 | 0 | 0 | 0 | 0 | 0 | 0 | 0 | 10 | 20 | – | – | – | – | – | Plant response rating, Ryegrass, Italian (ryegrass, Italian; 16 g ai/ha): 0; Plant response rating (mustard, wild; Postemergence, 16 g ai/ha): 0; Plant response rating (mustard, wild; Postemergence, 250 g ai/ha): 0; Plant response rating, Mustard, Wild (mustard, wild; Preemergence, 16 g ai/ha): 0
O=C1NCC(c2ccc(F)c(C(F)(F)F)c2)C1C(=O)Nc1cccc(F)c1F (racemic) [Compound 77] | – | – | – | – | – | 15 | 25 | 15 | 35 | – | – | 20 | 0 | 25 | 45 | – | – | – | – | – | –
O=C1NCCC1C(=O)N(c1ccc(F)c(F)c1)c1ccccc1F (centres unmarked) [Compound 5, N-(3,4-difluorophenyl)-N-(2-fluorophenyl)-2-oxo-3-pyrrolidinecarboxamide] | – | – | – | – | – | – | – | – | – | – | – | – | – | – | – | 0 | 0 | – | – | – | Cocklebur plant response rating (cocklebur; [3]): 0; Plant response rating, Cocklebur (cocklebur; Preemergence, 250 g ai/ha, scale 0 to 100 (0 no effect, 100 complete control)): 0
O=C1NCC(c2cc(F)c(F)c(F)c2)C1C(=O)Nc1cccc(F)c1F (centres unmarked) [Compound 48] | – | – | – | – | – | – | – | – | – | – | – | – | – | – | – | 0 | 5 | 5 | 10 | 10 | Plant response rating, Cocklebur (cocklebur; Postemergence, 16 g ai/ha, scale 0 to 100 (0 no effect, 100 complete control)): 0; Plant response rating, Cocklebur (cocklebur; Preemergence, 16 g ai/ha, scale 0 to 100): 0; Cocklebur plant response rating (cocklebur; [3]): 0
O=C1NCC(c2cc(F)c(F)cc2F)C1C(=O)Nc1cccc(F)c1F (centres unmarked) [Compound 50] | 0 | 0 | 0 | 0 | – | 0 | 0 | 0 | – | 60 | 40 | 0 | – | 80 | – | – | – | 5 | 5 | 5 | Plant response rating, Cocklebur (cocklebur; [7]): 5; Plant response rating, Ryegrass, Italian (ryegrass, Italian; 16 g ai/ha): 0; Plant response rating (mustard, wild; Postemergence, 16 g ai/ha): 40; Plant response rating, Mustard, Wild (mustard, wild; Preemergence, 16 g ai/ha): 50
O=C1NCC(c2ccc(Cl)c(F)c2)C1C(=O)Nc1cccc(F)c1F (centres unmarked) [Compound 52] | 0 | 0 | 0 | 0 | 0 | 0 | 0 | 0 | 0 | 10 | 20 | 0 | 0 | 0 | 10 | 0 | 0 | 5 | 5 | 5 | Plant response rating, Cocklebur (cocklebur; [7]): 5; Cocklebur plant response rating (cocklebur; [3]): 0; Plant response rating, Ryegrass, Italian (ryegrass, Italian; 16 g ai/ha): 40; Plant response rating (mustard, wild; Postemergence, 16 g ai/ha): 0; Plant response rating (mustard, wild; Postemergence, 62 g ai/ha): 20; Plant response rating (mustard, wild; Postemergence, 250 g ai/ha): 25; Plant response rating, Mustard, Wild (mustard, wild; Preemergence, 16 g ai/ha): 0
O=C1NCC(c2ccc(F)c(Cl)c2)C1C(=O)Nc1ccccc1F (centres unmarked) [Compound 60] | – | – | – | – | – | – | – | – | – | – | – | – | – | – | – | 0 | 0 | 0 | 0 | 0 | –
O=C1NCC(c2cccc(OC(F)(F)F)c2)C1C(=O)Nc1ccccc1F (centres unmarked) [Compound 69] | – | – | – | – | – | – | – | – | – | – | – | – | – | – | – | – | – | – | – | – | Cocklebur plant response rating (cocklebur; Preemergence, 31 g ai/ha, scale 0 to 100, 0 is no effect and 100 is complete control): 0; Plant response rating (scale of 0 to 100), Cocklebur (cocklebur; Preemergence, 250 g ai/ha): 0
O=C1NCC(c2ccc(C(F)(F)F)cc2)C1C(=O)Nc1ccccc1F (centres unmarked) [Compound 231] | – | 0 | 0 | 0 | 0 | 0 | 0 | 0 | 0 | 35 | 65 | 10 | 0 | – | 15 | – | – | – | – | – | Plant response rating (mustard, wild; Postemergence, 62 g ai/ha): 65; Plant response rating (mustard, wild; Postemergence, 250 g ai/ha): 75; Plant response rating, Mustard, Wild (mustard, wild; Preemergence, 125 g ai/ha): 0
